Here are results for 30 compounds from patent publication US20240327359A1, “3-ISOXAZOLIDINONE COMPOUND, PREPARATION METHOD, HERBICIDAL COMPOSITION AND APPLICATION THEREOF” (QINGDAO KINGAGROOT CHEMICAL COMPOUND CO., LTD., priority 2021, published 2024).

Like-named read-outs stand apart in the source and are kept apart here.

The test system of the experiment is weeds. The experiment can be described thus: Activity test of the compositions, soil sealing treatment. Type of experiment: in vivo. Particulars: for pest or weed control at 240 g/ha: B 16 g a.i./mu; for pest or weed control at 480 g/ha: B 32 g a.i./mu. On the procedure:
The desired active ingredient B was purchased from a reagent company or synthesized by a known method. The technical materials were all dissolved in acetone and diluted with an aqueous solution containing 0.10% emulsifier Tween-80 which were to be used immediately after dilution.
Weeds are cultivated in a controllable sunlight greenhouse at 20 to 30° C., in natural light, and with relative humidity of 57% to 72%. […] The test soil was filled quantitatively to ¾ of the pots and then watered from the bottom of the pots to completely wet the soil to saturation. The test weed seeds were accelerated to just germinate, and then evenly and quantitatively sowed on the surface, then covered with 0.5-1 cm soil according to the seed size, and ready for use 72 hours after sowing.
Each treatment was repeated 4 times. Four pots with 20 weed seeds per pot were treated each time.
The well-sowed test materials were evenly placed on a platform with an area of 0.5 m^2, and solution of agents was sprayed on the soil by the 3WP-2000-type walking spray tower at a dosage of 450 kg/ha and at a spray pressure of 0.3 MPa. After all the solution was sprayed, the valve was closed. After 30 seconds, the door of the spray tower was opened, and the nutritional bowl was taken out. Then the valve was opened, and the spray tube was cleaned by spraying 50 ml of water.
A method for investigating absolute numbers was employed. Whole seedlings of survival weeds were cut off with a blade along the soil surface, and the fresh weight of the weeds was weighed with an analytical balance. For dead weeds, the fresh weight thereof was zero.
The investigation was performed 21 days after the treatment for only once in total.

Setting [1] is: Potamogeton distinctus, soil, read-out: Control effect (%) of B applied alone (B).
The mark [2] stands for this setting: Echinochloa crus-galli, Echinochloa crusgalli, soil (S), B 1 g a.i./mu, read-out: Control effect (%) of B applied alone (B).
The mark [3] stands for this setting: Cyperus difformis, soil (S), B 0.5 g a.i./mu, read-out: Control effect (%) of B applied alone (B).
Where [4] appears, read: Echinochloa crusgalli, soil (S), B 1 g a.i./mu.
[5] abbreviates: Echinochloa crusgalli, soil treatment (S), B at 2 g a.i./mu, 21 days.
Setting [6] is: Lolium multiflorum, soil, read-out: Control effect (%) of B applied alone (B).
Setting [7] is: Echinochloa crus-galli, Echinochloa crusgalli, soil (S), read-out: Control effect (%) of B applied alone (B).
[8] abbreviates: Lolium multiflorum, soil (S), read-out: Control effect (%) of B applied alone (B).
The mark [9] stands for this setting: Echinochloa crus-galli, soil, read-out: Control effect (%) of B applied alone (B).

As to `CC(C)CCCCCOC(=O)COc1ccc(Cl)cc1Cl` [2,4-D isooctyl ester], the “Control effect (%) of B applied alone (B)” value (“Control effect (%)” for short) is given as 33.6% (Veronica didyma, soil (S), B 6 g a.i./mu) and 42.5% (Veronica didyma, soil (S), B 12 g a.i./mu).

In the case of `Nc1c([N+](=O)[O-])ccc(Oc2ccccc2)c1Cl` [aclonifen], the pest or weed control at 300 g/ha (Lolium multiflorum, soil (S), B 20 g a.i./mu, read-out: Control effect (%) of B applied alone (B)) was 31.6%. Also, the pest or weed control at 600 g/ha (Lolium multiflorum, soil (S), B 40 g a.i./mu, read-out: Control effect (%) of B applied alone (B)) amounted to 52.1%.

With `CCOC(=O)COc1ncccc1Oc1cc(-n2c(=O)cc(C(F)(F)F)n(C)c2=O)c(F)cc1Cl` [epyrifenacil], the “Control effect (%)” value came to 36.9% (Amaranthus retroflexus, soil (S), B 0.5 g a.i./mu) and 47.1% (Amaranthus retroflexus, soil (S), B 1 g a.i./mu).

For the compound `COC[C@H](C)N(C(=O)CCl)c1c(C)csc1C` [dimethenamid-P], the “Control effect (%)” value by setting is: (Echinochloa crusgalli, soil (S), B 4 g a.i./mu) 34.2%; (Echinochloa crusgalli, soil (S), B 8 g a.i./mu) 47.5%.

Consider `CCNc1nc(NCC)nc(SC)n1` [simetryn], for which, under setting [1], the pest or weed control at 90 g/ha is 41.5% and the pest or weed control at 180 g/ha is 58.3%.

As for `CCc1cnc(C2=NC(C)(C(C)C)C(=O)N2)c(C(=O)O)c1` (stereo not drawn) [imazethapyr], under setting [2], the pest or weed control at 15 g/ha was determined as 33.4%. Besides, where the note is “Echinochloa crus-galli, Echinochloa crusgalli, soil (S), B 2 g a.i./mu, read-out: Control effect (%) of B applied alone (B)”, the pest or weed control at 30 g/ha was found to be 43.8%.

For the compound `COC(=O)c1ccccc1CS(=O)(=O)NC(=O)Nc1nc(OC)cc(OC)n1` [bensulfuron-methyl], the pest or weed control at 7.5 g/ha under setting [3] was 42.6%. In addition, where the note is “Cyperus difformis, soil (S), B 1 g a.i./mu, read-out: Control effect (%) of B applied alone (B)”, the pest or weed control at 15 g/ha turned out to be 55.8%.

As for `C#CCN1C(=O)C(F)(F)Oc2cc(F)c(-n3c(=O)n(C)c(=S)n(C)c3=O)cc21` [trifludimoxazin], the “Control effect (%)” value runs as follows: (Lolium multiflorum, soil (S), B 2 g a.i./mu) 31.5%; (Lolium multiflorum, soil (S), B 4 g a.i./mu) 42.6%.

On to `COc1ccc(-n2c(=O)c(C(=O)C3C(=O)CCCC3=O)nc3c(Cl)cccc32)cc1` [fenquinotrione], for which the “Control effect (%)” value runs as follows: (Lolium multiflorum, soil (S), B 1.5 g a.i./mu) 28.6%; (Lolium multiflorum, soil (S), B 3 g a.i./mu) 44.1%.

Consider `C#CCN(C)c1c(C#N)cnn1-c1nn2c(c1Cl)CCCC2` [pyraclonil], for which the “Control effect (%)” value under setting [4] was found to be 22.5% and the “Control effect (%)” value (Echinochloa crusgalli, soil (S), B 2 g a.i./mu) worked out at 43.6%.

`COCc1cnc(C2=NC(C)(C(C)C)C(=O)N2)c(C(=O)O)c1` (stereo not drawn) [imazamox]: the pest or weed control at 6 g/ha (Lolium multiflorum, soil (S), B 0.4 g a.i./mu, read-out: Control effect (%) of B applied alone (B)) was 25.4%. For the setting “Lolium multiflorum, soil (S), B 0.8 g a.i./mu, read-out: Control effect (%) of B applied alone (B)”, the pest or weed control at 12 g/ha stood at 42.7%.

For `CN1C[C@H](c2cccc(C(F)(F)F)c2)[C@@H](C(=O)Nc2ccccc2F)C1=O` [tetflupyrolimet], the “Control effect (%)” value runs as follows: (Echinochloa crusgalli, soil treatment (S), B at 1 g a.i./mu, 21 days) 34.7%; under setting [5], 55.6%.

Regarding `CCOc1ccccc1OS(=O)(=O)NC(=O)Nc1nc(OC)cc(OC)n1` [ethoxysulfuron], the pest or weed control at 3.75 g/ha (Cyperus difformis, soil (S), B 0.25 g a.i./mu, read-out: Control effect (%) of B applied alone (B)) came out at 44.6%. Further, under setting [3], the pest or weed control at 7.5 g/ha was determined as 58.4%.

In the case of `CCNc1nc(Cl)nc(NC(C)(C)C)n1` [terbutylazine], the “Control effect (%)” value is 33.8% (Echinochloa crusgalli, soil (S), B 6 g a.i./mu) and 52.7% (Echinochloa crusgalli, soil (S), B 12 g a.i./mu).

Regarding `CCC(Oc1ccc(F)c(C(F)(F)F)c1)C(=O)NCc1ccccc1` (stereo not drawn) [beflubutamid], the “Control effect (%)” value reads like this: (Veronica didyma, soil (S), B 1 g a.i./mu) 42.6%; (Veronica didyma, soil (S), B 2 g a.i./mu) 57.9%.

Regarding `C#CCN1C(=O)COc2cc(F)c(N3C(=O)C4=C(CCCC4)C3=O)cc21` [flumioxazin], where the note is “Echinochloa crus-galli, Echinochloa crusgalli, soil (S), B 0.5 g a.i./mu, read-out: Control effect (%) of B applied alone (B)”, the pest or weed control at 7.5 g/ha is 32.8%. Besides, the pest or weed control at 15 g/ha under setting [2] is 45.1%.

With `CC1=C(c2ccccc2)C(=O)N(C(C)(C)c2cc(Cl)cc(Cl)c2)CO1` [oxaziclomefone], the pest or weed control at 7.5 g/ha (Echinochloa crus-galli, 504 h, Echinochloa crusgalli, soil treatment (S), B at 0.5 g a.i./mu, 21 days, read-out: Control effect (%) of B applied alone (B)) worked out at 33.7%. The pest or weed control at 15 g/ha (Echinochloa crus-galli, 504 h, Echinochloa crusgalli, soil treatment (S), B at 1 g a.i./mu, 21 days, read-out: Control effect (%) of B applied alone (B)) turned out to be 51.2%.

With `CSc1nnc(C(C)(C)C)c(=O)n1N` [metribuzin], the pest or weed control at 75 g/ha (Amaranthus retroflexus, soil (S), B 5 g a.i./mu, read-out: Control effect (%) of B applied alone (B)) worked out at 40.5%. Further, where the note is “Amaranthus retroflexus, soil (S), B 10 g a.i./mu, read-out: Control effect (%) of B applied alone (B)”, the pest or weed control at 150 g/ha is 56.2%.

With `CCNc1nc(NC(C)C)nc(SC)n1` [ametryne], under setting [6], the pest or weed control at 300 g/ha turned out to be 18.1% and the pest or weed control at 600 g/ha was 31.6%.

Regarding `CCOc1cc(Oc2ccc(C(F)(F)F)cc2Cl)ccc1[N+](=O)[O-]` [oxyfluorfen], the pest or weed control at 15 g/ha (Digitaria sanguinalis, soil (S), B 1 g a.i./mu, read-out: Control effect (%) of B applied alone (B)) was 28.6%. In addition, the pest or weed control at 30 g/ha (Digitaria sanguinalis, soil (S), B 2 g a.i./mu, read-out: Control effect (%) of B applied alone (B)) is 39.5%.

As for `CCN(C(=O)n1nnn(-c2ccccc2Cl)c1=O)C1CCCCC1` [fentrazamide], under setting [7], the pest or weed control at 240 g/ha came to 32.5% and the pest or weed control at 480 g/ha was found to be 50.8%.

`CCCc1ccc2nc(Cl)c(S(=O)(=O)NC(=O)Nc3nc(OC)cc(OC)n3)n2n1` [propyrisulfuron]: the “Control effect (%)” value reads like this: (Echinochloa crusgalli, soil (S), B 0.6 g a.i./mu) 22.6%; (Echinochloa crusgalli, soil (S), B 1.2 g a.i./mu) 37.5%.

With `CC(C)c1ccc(NC(=O)N(C)C)cc1` [isoproturon], the pest or weed control at 120 g/ha (Alopecurus japonicus, soil (S), B 8 g a.i./mu, read-out: Control effect (%) of B applied alone (B)) was determined as 41.5%. Under “Alopecurus japonicus, soil (S), read-out: Control effect (%) of B applied alone (B)”, the pest or weed control at 240 g/ha was 53.6%.

As to S-metolachlor, the “Control effect (%)” value (Lolium multiflorum, soil (S), B 12 g a.i./mu) came out at 32.1% and the “Control effect (%)” value (Lolium multiflorum, soil (S), B 24 g a.i./mu) is given as 53.6%.

For the compound `CCCCOCN(C(=O)CCl)c1c(CC)cccc1CC` [butachlor], under setting [8], the pest or weed control at 240 g/ha is 28.8% and the pest or weed control at 480 g/ha stood at 46.4%.

As to `CSc1nc(NC(C)C)nc(NC(C)C)n1` [prometryne], the pest or weed control at 90 g/ha (Commelina communis, soil (S), B 6 g a.i./mu, read-out: Control effect (%) of B applied alone (B)) was found to be 30.5%. Also, under “Commelina communis, soil (S), B 12 g a.i./mu, read-out: Control effect (%) of B applied alone (B)”, the pest or weed control at 180 g/ha is 41.7%.

As for `Cc1ccc(NC(=O)N(C)C)cc1Cl` [chlorotoluron], the pest or weed control at 225 g/ha (Alopecurus japonicus, soil (S), B 15 g a.i./mu, read-out: Control effect (%) of B applied alone (B)) was 34.2%. Also, where the note is “Alopecurus japonicus, soil (S), B 30 g a.i./mu, read-out: Control effect (%) of B applied alone (B)”, the pest or weed control at 450 g/ha stood at 58.3%.

Turning to `COP(=S)(OC)SCC(=O)N(c1ccc(Cl)cc1)C(C)(C)C` [anilofos], under setting [9], the pest or weed control at 30 g/ha turned out to be 23.1% and the pest or weed control at 60 g/ha is 32.6%.

On to `C#CCOc1cc(-n2nc(C(C)(C)C)oc2=O)c(Cl)cc1Cl` [oxadiargy1], for which the “Control effect (%)” value runs as follows: (Echinochloa crusgalli, soil (S), B 0.5 g a.i./mu) 36.2%; under setting [4], 47.9%.

Regarding `Cc1cc(C)cc(OCC(C)Nc2nc(N)nc(C(C)(C)F)n2)c1` (stereo not drawn) [triaziflam], the “Control effect (%)” value runs as follows: under setting [5], 29.4%; (Echinochloa crusgalli, soil treatment (S), B at 4 g a.i./mu, 21 days) 40.5%.
